Measured values: patent US7314626B2, “Use of peptide vectors to improve the immune response to antigens” (SYNT:EM S.A., priority 2001, dated 2008)

Columns and labels:
K562 cells = assay: Cell uptake by K562 cells, flow cytometry (Mean Fluorescence Intensity); assay type: cell-based; details: for cell uptake as judged by the mean of fluorescence intensity: 37° C.
Protocol: Cell association was measured by flow cytometry using a FACScan (Becton Dickinson, USA). Free or vectorised compounds were incubated with K562 cells (5×10^5 cells per ml) in Optimem medium at 37° C. for various periods of time.
Thereafter, the cells were washed twice and then resuspended in 0.5 ml of ice-cold PBS for FACS analysis. Cell-associated fluorophores were excited at 488 nm and fluorescence was measured at 525 nm. A histogram of fluorescence intensity per cell (1×10^4) was obtained and the calculated mean of this distribution (Mean Fluorescence Intensity) was considered as representative of the amount of cell-associated peptide
Flu NP epitope was conjugated to SynB3 and SynB4 vectors. First, we compared the cell uptake of free and conjugated flu NP. Flu NP epitope was conjugated to SynB3 and SynB4 vectors and labelled with a fluorescent group (NBD). The compounds were incubated with K562 cells for various times and the cell uptake was measured using flow cytometry.
We also coupled rDPV protein with SynB3 and SynB4 vectors. The coupling procedure is described in the Protocols. First, we compared the cell uptake of free and coupled rDPV. The rDPV was labelled with a fluorescent group (NBD) in order to measure its uptake. The compounds were incubated with K562 cells for various times and the cell uptake was measured using flow cytometry.

Balb/c mice = assay: Immunization with flu NP peptide, CTL responses by 51Cr release assay; assay type: in vivo; details: FIG. 2; for specific CTL responses: intradermal, 25 μg flu NP peptide equivalent, spleens after three weeks; for mice eliciting CTL responses: three mice per group
C57B1/6/c mice = assay: Immunization with rDPV protein, DPV specific CTL responses by 51Cr release assay; assay type: in vivo; details: 5 μg intradermal on day 0 and day 21, spleens day 42, FIG. 4, effective response defined as >10% specific lysis
[1] = NBD-labelled free or conjugated flu NP, FIG. 1
[2] = NBD-labelled free or coupled rDPV, FIG. 3

In the case of “TYQRTRALV (SEQ ID NO:20) [flu NP, reference compound]”, the “cell uptake as judged by the mean of fluorescence intensity” value (shortened to “cell uptake as judged by the mean”) (K562 cells; [1]) is reported as “very low uptake” and the “specific CTL responses” value (Balb/c mice) is reported as “failed to elicit specific CTL responses”.

With “RRLSYSRRRF-rDPV ((SEQ ID NO:11)-rDPV) [SynB3/rDPV]” the “time at which cell uptake reached saturation” value (K562 cells; FIG. 3) was 30 min, the “cell uptake as judged by the mean” value (K562 cells; [2]) was “increased significantly” and the “mean CTL response” value (C57B1/6/c mice) was “strong CTL responses”.

“AWSFRVSYRGISYRRSR-TYQRTRALV (SEQ ID NO:21) (AWSFRVSYRGISYRRSRTYQRTRALV) [SynB4/flu NP]” was tested, and the “cell uptake as judged by the mean” value (K562 cells; [1]) was “increased significantly”, the “cell uptake higher than the one observed for free flu NP” value (K562 cells; at 45 min) was “about 5 fold” and the “specific CTL responses” value (Balb/c mice) was “elicited specific CTL responses”. For the same substance, the “mice eliciting CTL responses” value (Balb/c mice) was “all mice”.

“RRLSYSRRRF-TYQRTRALV (SEQ ID NO:22) (RRLSYSRRRFTYQRTRALV) [SynB3/flu NP]” was tested, and the “cell uptake as judged by the mean” value (K562 cells; [1]) was “increased significantly”, the “specific CTL responses” value (Balb/c mice) was “elicited specific CTL responses” and the “mice eliciting CTL responses” value (Balb/c mice) was “all mice”.

For “AWSFRVSYRGISYRRSR-rDPV ((SEQ ID NO:18)-rDPV) [SynB4/rDPV]”, the “time at which cell uptake reached saturation” value (K562 cells; FIG. 3) was 100 min, the “cell uptake as judged by the mean” value (K562 cells; [2]) was “increased significantly” and the “cell uptake as judged by the mean” value (K562 cells; NBD-labelled free or coupled rDPV, FIG. 3, listed as rDPV-SynB4) was “slightly better than SynB3”. For the same substance, the “mean CTL response” value (C57B1/6/c mice) was “strong CTL responses”.
